These results are taken from PubChem BioAssay (NCI).

The subject of the assay is MDA-MB-468 breast. Description: NCI-60 cell line screen, 48 h.

Where “and” joins values, the source holds several entries; their conditions need not be identical. Equal values may be shown once.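 A five-concentration, 48-hour dose response in 96-well plates underlies each endpoint, interpolated linearly between surrounding concentrations. GI50 is the concentration that inhibits growth by half. TGI denotes the concentration required for complete inhibition of growth.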

With `COc1ccc(C2C3=C(COC3=O)N(CCO)c3cc4c(cc32)CCC4)cc1OC` (stereo not given), the GI50 is 184 nM.

For the molecule `O=C(Nc1ccc(I)cc1F)c1cc(F)ccc1O`, the GI50 was 898 nM and the TGI stood at 5300 nM.

For the molecule `CCN(CC)c1ccc(/C=C2/NC(=O)NC2=O)cc1`, the GI50 is 981 nM and the TGI was found to be 7840 nM.

In the case of `c1ccc(-c2nn(-c3ccccc3)[n+](-c3ccccc3-c3ccccc3)n2)cc1`, the GI50 is 189 nM and the TGI was 923 nM.

As for `O=C(CN1CCN(c2cc3c(cc2F)c(=O)c(C(=O)O)cn3C2CC2)CC1)Nc1ccc(C(=O)/C=C/c2ccccc2)cc1`, the GI50 was 2450 nM and the TGI was determined as 23200 nM.

As for `COc1cc(C2CC(c3cc(Cl)c(C)cc3O)=NN2c2ccc(S(N)(=O)=O)cc2)cc(OC)c1OC` (stereo not given), the GI50 was 2640 nM and the TGI was found to be 9070 nM.

Regarding `CC(=O)O[C@H]1Cc2c([nH]c3ccccc23)[C@@H](c2ccc(Cl)cc2)N1C(=O)CCNC(C)(C)C`, the GI50 is 3180 nM and the TGI amounted to 7670 nM.

As for `COc1cc2cc(Oc3ccc(NC(=O)Nc4cc(C(F)(F)F)cc(C(F)(F)F)c4)cc3)c(C)nc2cc1OCCN1CCCCC1`, the GI50 is 1670 nM and the TGI turned out to be 3320 nM.

As for `CCN1CCN(c2nc(NNC(=O)c3cccc(OC)c3)nc(N3CCN(C(c4ccccc4)c4ccccc4)CC3)n2)CC1`, the GI50 was 1910 nM and the TGI worked out at 4920 nM.

On to `O=C(N/N=C\c1cc(Br)cc(Br)c1O)N/N=C/c1cc(Br)cc(Br)c1O`, for which the GI50 was 3130 nM and the TGI was found to be 8850 nM.

With `Clc1ccc2c(NCCNc3nc(Cl)nc4ccccc34)ccnc2c1`, the GI50 is 583 nM and the TGI stood at 2030 nM.

`Cc1cncc2cccc(S(=O)(=O)N3CCCNC[C@@H]3C)c12`: the GI50 was 19000 nM and the TGI was above 91100 nM.

`Nc1cc2ccncc2c2ccccc12`: the GI50 was 12300 nM and the TGI worked out at 36500 nM.

For `CCn1c(-c2nonc2N)nc2c(C#CC(C)(C)O)ncc(OCC3CCNCC3)c21`, the GI50 is 336 nM and the TGI was above 25000 nM.

Consider `Cn1cc(-c2nnc(N)nc2-c2c[nH]c3ccc(F)cc23)c2cc(Br)ccc21`, for which the GI50 is 1240 nM and the TGI was found to be 7750 nM.

Regarding `NC(=S)c1cn(C2OC(CO)C(O)C2O)c2ncnc(N)c12` (stereo not given), the GI50 was 58.9 nM and the TGI amounted to 252 nM.

Take `Cn1ccnc1C(=O)/C=C/c1ccc(CC(=O)Nc2cc(F)c(F)c(F)c2)cc1`: the GI50 was 636 nM and the TGI worked out at 1960 nM.

On to `Cn1cc(C2=C(c3cn(C)c4cc(Cl)ccc34)C(=O)NC2=O)c2ccccc21`, for which the GI50 was 74.4 nM and the TGI came out at 5960 nM.

Turning to `CCOC(=O)Nc1ccc2nc(Sc3ccc(Cl)cc3)sc2c1`, the GI50 was 719 nM and the TGI was 3670 nM.

Regarding `O=C(c1nc2ccccc2[nH]1)C1C(c2cccc([N+](=O)[O-])c2)C2CC3CCCCC3N2[C@@]12C(=O)Nc1cc(Cl)ccc12` (stereo not given in full), the GI50 is 1390 nM and the TGI worked out at 4000 nM.

Take H-KIFKKFKTIIKKVWRIFGRF-NH2: the GI50 was 1320 nM and the TGI came to 5940 nM.

Turning to `Nc1ncn(C2OC(CO)C(O)C2O)c(=O)n1` (stereo not given), the GI50 was 1210 nM and 925 nM; the TGI is 6450 nM and 8060 nM.

Regarding `CCN(Cc1cccc(C)c1)c1ccc(CO)c(Cl)c1`, the GI50 was 36.2 nM and the TGI was 134 nM.

On to `COC(=O)C1=C(C)NC(C)=C(C(=O)OC)C1c1ccccc1[N+](=O)[O-]`, for which the GI50 was 25300 nM and the TGI is above 100000 nM.

For the molecule `Nc1ccc(Sc2ccc3c4c2cccc4c(=O)n2c4ccccc4nc32)cc1`, the GI50 is 3190 nM and the TGI amounted to 20800 nM.

As for `COc1ccc(Nc2ccnc3cc(Cl)ccc23)cc1CN(CCCl)CCCl`, the GI50 is 195 nM and the TGI was 840 nM.

In the case of `CO[C@H]1/C=C/C=C/C=C/C[C@H](OC(=O)[C@@H](C)NC(=O)C2CCCCC2)[C@H](C)[C@@H](O)/C(C)=C\CCC2=CC(=O)C=C(NC(=O)C1)C2=O`, the GI50 is 142 nM and the TGI came out at 740 nM.

With `CCN(CC)CCn1nc2c3c(cccc3c1=O)-c1ccccc1-2`, the GI50 was 2220 nM and the TGI was 8430 nM.

For the molecule `CCN(CC)Cc1cc(Nc2c3ccc(Cl)cc3nc3c(C)cccc23)ccc1O`, the GI50 is 1370 nM and the TGI worked out at 2830 nM.

As to `COC(=O)[C@@H](C)C[C@H](Cc1ccccc1)NC(=O)c1csc([C@@H](C[C@H](C(C)C)N(C)C(=O)[C@@H](NC(=O)CN(C)C)C2CC2)OC(C)=O)n1`, the GI50 was 6.58 nM.

On to `CN1CCN(Cc2ccc(NC(=O)c3cncc(C#Cc4cncc5[nH]ncc45)c3)cc2C(F)(F)F)CC1`, for which the GI50 is 1080 nM and the TGI came out at 4080 nM.

For `CCc1cc(Nc2nccc(-c3c(-c4ccc(OC)c(C(=O)Nc5c(F)cccc5F)c4)nc4ccccn34)n2)c(OC)cc1N1CCC(N2CCN(S(C)(=O)=O)CC2)CC1`, the GI50 was above 82700 nM and the TGI was above 100000 nM.

On to `N#CCCCCCn1c2ccccc2c2c3c(c4c5ccccc5[nH]c4c21)C(=O)N(O)C3=O`, for which the GI50 was 1480 nM and the TGI was 5980 nM.

Regarding `COc1ccc(C(=O)C(CN(C)C)c2ccccc2)cc1` (stereo not given), the GI50 is 1930 nM and the TGI came to 4960 nM.

On to `Fc1ccc(-c2ncn(C3CCNCC3)c2-c2ccnc(Oc3ccc(Oc4ccccc4)cc3)n2)cc1`, for which the GI50 is 1940 nM and the TGI was found to be 5570 nM.

Consider `Cc1ccc(/C=C2\CN(C(=O)CCN3CCC(=NO)CC3)C/C(=C\c3ccc(C)cc3)C2=O)cc1`, for which the GI50 was 1460 nM and the TGI came out at 3460 nM.

`Cc1cccc(Cc2cnc(NC(=O)/C=C/c3ccco3)s2)c1`: the GI50 was 40.7 nM and the TGI worked out at 13200 nM.

Regarding `O=C(Nc1ccc(Oc2cccc(Cl)c2)c(Cl)c1)c1cccnc1`, the GI50 was 565 nM and the TGI worked out at 4150 nM.

For the molecule `CCCCOc1nc2ccccc2cc1C1CNC(=O)c2ccccc2N1` (stereo not given), the GI50 was 2030 nM and the TGI came out at 9560 nM.

Consider `Cc1cc2nc3c4cc(Cl)ccc4n(CC(=O)NCCN(C)C)c3nc2cc1C`, for which the GI50 is 11300 nM and the TGI was 23800 nM.

Consider `Cn1cc(C2=C(c3cccc(Cl)c3)C(=O)NC2=O)c2ccccc21`, for which the GI50 was 4480 nM and the TGI came out at 24600 nM.
